Legend:
[1] = tested on: Kultur von Rubia tinctorum; experiment: Elicitation of anthraquinones (alizarin) in cell culture; type: cell-based; conditions: added after 4 days, harvested after 7 days; concentration not given
Description: (§1) B. Glukoseester, Aminosäure- oder andere Kohlenhydrataddukte eingesetzt werden.
Eine Kultur von Rubia tinctorum wird in LS-Medium kultiviert. Nach 4 Tagen werden der Kultur 2',3'-Dihydrojasmonat zugesetzt. Nach 7 Tagen wird die Kultur geerntet und der Anthrachinon-Gehalt bestimmt. Der Zuwachs an Alizarin beträgt das ca. 40-fache gegenüber der Kontrolle.

[2] = tested on: Rauwolfia canescens Zellkultur; experiment: Induction of new indole alkaloids in cell culture; type: cell-based; conditions: 200 µmol/l; cultivated 6 further days; number of new alkaloids
Description: as §1
Einer 4 Tage alten Rauwolfia canescens Zellkultur (LS-Medium) wird 3-Hydroxyjasmonat zu einer Endkonzentration von 200 µmol/l zugesetzt. Die Kultur wird 6 Tage weiterkultiviert und mit einer entsprechenden Kontrolle, der kein 3-Hydroxyjasmonat zugesetzt wurde, verglichen. Dabei zeigt sich, daß in dieser Zellkultur 6 Indolalkaloide gebildet werden, die in der Kontrollkultur nicht vorkommen.

[3] = tested on: Zellkultur von Lactuca sativa; experiment: Elicitation of lettucenin A in cell culture; type: cell-based; conditions: 250 µmol/l; extraction 6 days later; not detectable in control culture
Procedure: as §1
Eine Zellkultur von Lactuca sativa wird 24 Stunden nach dem Überimpfen in LS-Medium mit 3-Hydroxyjasmonsäure zu einer Endkonzentration von 250 µmol/l versetzt. Die Extraktion mit Methanol erfolgt 6 Tage später. Die elicitierten Kulturen enthalten das Custonolid Lettucenin A in einer Konzentration von ca. 30 mg/I. In den Extrakten einer Kontrollkultur ist Lettucenin A nicht nachweisbar.

[4] = tested on: isolierte Wurzelkulturen von Hyoscyamus alba; type: cell-based; conditions: isolated root cultures; concentration of elicitor not given
Description: (§2) Weitere Beispiele sind: Digitalis purpurea: Cardenoloide, die unter dem Einfluß von Jasmonat gegenüber der Kontrolle eine 2-fach gesteigerte Konzentration erreichen; Linum hirsutum: Lignane, die 2,5-fach gesteigert sind; Gossypium herbaceum: Gossipol, 10-fach gesteigert gegenüber der Kontrolle; isolierte Wurzelkulturen von Hyoscyamus alba: Hyoscyamin/Scopolamin: stark parasympatholytische bzw. zentraldämpfende, medizinisch wertvolle Alkaloide, 12-fache Steigerung gegenüber der Kontrolle; Zellkulturen von Colchicum autumnale, die das Gichtmittel Colchicin produzieren, 8-fache Steigerung gegenüber der Kontrolle; Zellkulturen von Cephaelis ipecacuanha, die das arzneilich genutzte Emetin produzieren, das bei Keuchhusten und Bronchialasthma sowie als erbrechungsförderndes Mittel Anwendung findet, 7,5-fache Steigerung gegenüber der Kontrolle; Zellkulturen von Cinchona succirubra bzw. Cinchona ledgeriana, die medizinisch als Antiarhythmikum bzw. als Chemotherapeutikum (Malaria) eingesetzt werden, Steigerung 14-fach; Zellkulturen von Rauwolfia serpentina, die die therapeutisch genutzten Indolalkaloide Reserpin (blutdrucksenkend, sedierend), Serpentin (blutdrucksenkend), Ajmalin (bei Herzrhythmusstörungen), Ajmalicin (Gehirn-durchblutungsfördernd), Yohimbin (durchblutungsfördernd) produzieren.
as §1

[5] = tested on: Zellkulturen von Colchicum autumnale; type: cell-based; conditions: concentration of elicitor not given
Description: as §2, §1

Digitalis purpurea = type: cell-based; conditions: concentration of elicitor not given
Description: as §2, §1

Gossypium herbaceum = type: cell-based; conditions: concentration of elicitor not given
Description: as §2, §1

[6] = tested on: Zellkulturen von Cephaelis ipecacuanha; type: cell-based; conditions: concentration of elicitor not given
Description: as §2, §1

Linum hirsutum = experiment: Elicitation of lignans; type: cell-based; conditions: versus control; concentration of elicitor not given
Description: as §2, §1

[7] = tested on: Zellkulturen von Cinchona succirubra bzw. Cinchona ledgeriana; experiment: Elicitation of secondary metabolites in Cinchona cell cultures; type: cell-based; conditions: product not named in b24 (Chinidin und Chinin according to b23); concentration of elicitor not given
Description: Beispiele für Sekundärstoffe, die durch das erfindungsgemäße Verfahren produziert werden können, sind: Atropin und Scopolamin, isoliert aus Hyoscyamus- und Datura-Wurzelkulturen, Colchicin aus Herbstzeitlose, Emetin aus Zell- und Wurzelkulturen der Brechwurz, Codein und Morphin aus Zellkulturen des Schlafmohns, Chinidin und Chinin aus Zellkulturen von Cinchona succirubra bzw. Cinchona ledgeriana, Ajmalin, Rescinamin, Reserpin aus Zellkulturen von Rauwolfia-Arten. Diese Substanzen werden arzneilich eingesetzt. Insbesondere sind also die Stoffgruppen der Indolalkaloide, der Isochinolinalkaloide, der Lignane und Isoprenoide zu nennen. […]

[8] = tested on: Kultur von Rauwolfia serpentina; experiment: Elicitation of vallesiachotamine in cell culture; type: cell-based; conditions: 200 umol/1, cultivated 4 further days
Procedure: as §1
Eine Kultur von Rauwolfia serpentina, in LS-Medium 3 Tage gewachsen, wird zu einer Endkonzentration von 200 umol/1 mit Jasmonsäure versetzt und 4 Tage weiterkultiviert. Der methanolische Extrakt des Gewebes enthält eine 8-fache Vallesiacotamin-Konzentration gegenüber der Kontrolle. Der Absolutwert ist 70 mg/I Medium.

Berberinbrückenenzym = experiment: mRNA hybridisation with a probe against the berberine bridge enzyme after elicitation; type: cell-based, Eschscholtzia californica; conditions: elicited as in Beispiel 1
Description: Zellkulturen von Eschscholtzia californica werden - wie in Beispiel 1 beschrieben - mit Methyljasmonat elicitiert. Nach Zugabe des Jasmonats werden im Abstand von je 1 Stunde Aliquots entnommen und die m-RNA extrahiert. Die m-RNA wird mit einer Probe gegen das Berberinbrückenenzym, ein Schlüsselenzym des Benzophenanthridin-Stoffwechsels, hybridisiert. […] Die so induzierte m-RNA ist ein Indiz für die Genaktivierung der an der Elicitierung und an der Alkaloidbiosynthese beteiligten Enzyme. Die Verbindungen der Formel (I) sind demnach in der Lage, reprimierte Sekundärstoffgene zu aktivieren.

[9] = tested on: Zellsuspensionskultur von Eschscholtzia californica; experiment: cells; conditions: 120 h, read-out: Steigerung der Benzophenanthridin-Produktion
Description: (§3) Die Zellkultur wird in Flüssigmedium kultiviert und kann entweder in entsprechenden Kulturgefäßen oder in Fermentern herangezogen werden. Nach einer Anwachsphase von 2 bis 10 Tagen wird dem Medium eine in Ethanol gelöste Verbindung der Formel (I) zugesetzt. […] Nach Bildung der maximalen Konzentration an Sekundärstoffen wird der Versuch durch Separierung der Zellen vom Medium abgebrochen und die Sekundärstoffe werden anschließend nach bekannten Verfahren aus dem Zellüberstand oder den Zellen isoliert.
(§4) Einer Zellsuspensionskultur von Eschscholtzia californica, die in 1 Liter LS-Nährmedium (Linsmaier, E. M., Skoog, F., Physiol. Plant 18, 100 (1965)) herangewachsen ist und deren Frischgewicht 200 g beträgt, wird Methyljasmonat zu einer Endkonzentration von 20 umol/1 zugesetzt. Die Kultur wird für 5 Tage weiterkultiviert, anschließend mit 200 ml salzsaurem Ethanol (1,7 ml HCI konz./1 I Ethanol) 2 Stunden lang bei 60 ° C extrahiert.

Kultur von Glycine max = experiment: cells; conditions: 144 h, read-out: höhere Konzentration an Daidcein- und Genistein-Glycosiden
Procedure: Die Zellkultur wird in Flüssigmedium kultiviert und kann entweder in entsprechenden Kulturgefäßen oder in Fermentern herangezogen werden. Nach einer Anwachsphase von 2 bis 10 Tagen wird dem Medium eine in Ethanol gelöste Verbindung der Formel (I) zugesetzt.
Eine Kultur von Glycine max wird mit 330 g Frischgewicht in 1 Liter 4x-Medium (Gamborg, Miller, Ojima, Experiment Research 50, 151 - 158 (1968)), 2,4-D 2 mg/I, NES 0,5 mg/I, IES 0,5 mg/I, Kinetin 0,2 mg/I versetzt. 3 Tage später wird Methyljasmonat zu einer Endkonzentration von 250 umol/1 zugesetzt. Nach einer Kultivierungsperiode von 6 Tagen wird die Kultur mit Methanol extrahiert (50 g Frischgewicht/200 ml Methanol; 2 Stunden, 60 ° C).

[10] = tested on: Zellsuspensionskultur von Eschscholtzia californica; conditions: 20 umol/1; cultivated 5 further days; per litre culture medium
Description: as §3, §4

[11] = tested on: Kultur von Ruta chalepensis; experiment: Elicitation of rutacridone in cell culture; type: cell-based; conditions: 40 µmol/l; cultivated 5 further days; methanol extract
Description: as §1
Eine 2 Tage alte Kultur von Ruta chalepensis (4x-Medium) wird mit Jasmonatglukosid zu einer Endkonzentration von 40 µmol/l versetzt, für 5 Tage weiterkultiviert und mit Methanol extrahiert. Der Extrakt zeigt einen 18-fachen Rutacridon-Gehalt gegenüber der Kontrolle.

## 2',3'-Dihydrojasmonat
[1]
  Zuwachs an Alizarin gegenüber der Kontrolle: ca. 40 -fach

## 3-Hydroxyjasmonat
[2]
  Indolalkaloide gebildet, die in der Kontrollkultur nicht vorkommen: 6

## 3-Hydroxyjasmonsäure
[3]
  Lettucenin A Konzentration: ca. 30 mg/I

## CC/C=C\C[C@H]1C(=O)CC[C@@H]1CC(=O)O [Jasmonat]
[4]
  Hyoscyamin/Scopolamin Steigerung gegenüber der Kontrolle: 12 -fach
[5]
  Colchicin Steigerung gegenüber der Kontrolle: 8 -fach
Digitalis purpurea
  Cardenoloide, gesteigerte Konzentration gegenüber der Kontrolle: 2 -fach
Gossypium herbaceum
  Gossipol gesteigert gegenüber der Kontrolle: 10 -fach
[6]
  Emetin Steigerung gegenüber der Kontrolle: 7,5 -fach
Linum hirsutum
  Lignane gesteigert: 2,5 -fach
[7]
  Steigerung: 14 -fach

## CCC=CCC1C(=O)CCC1CC(=O)O (stereo not drawn) [Jasmonsäure]
[8]
  Vallesiacotamin-Konzentration, Absolutwert: 70 mg/I Medium
[8]; Rauvolfia serpentina, 96 h, methanolic extract of the tissue, read-out: Vallesiacotamin-Konzentration gegenüber der Kontrolle
  fold induction at 200 µM: 8

## CCC=CCC1C(=O)CCC1CC(=O)OC (stereo not drawn) [Methyljasmonat]
Berberinbrückenenzym; in 2 hours after addition, versus control culture
  spezifische m-RNA-Menge: verdoppelt
Berberinbrückenenzym; in 10 hours after addition, then decreases again
  spezifische m-RNA-Menge: weiter ansteigt
[9]
  fold induction at 20 µM: 15
Kultur von Glycine max
  fold induction at 250 µM: ~30
[10]
  Gesamtausbeute der Kultur, Benzophenanthridine pro Liter Kulturmedium: 300 mg

## Jasmonatglukosid
[11]
  Rutacridon-Gehalt gegenüber der Kontrolle: 18 -fach
